Where only a bound is given, the exact number is not on record here.

In turn, `CCNc1nc(C(C)(C)C)nn1-c1c(Cl)cc(C(F)(F)F)cc1Cl` returned a melting point of 67 to 70 °C.
With `OCC[C@H]1[C@@H]2O[C@@H]2C(F)(F)[C@@H]1O`, the melting point was in the range of 59 to 59.5 °C.
The figure for `O=C(O)c1cn(C2CC2)c2cc(N3CCC(c4ccccn4)C3)c(F)cc2c1=O` (stereo not given) is 216 to 219 °C; for `O=C(Nc1ncc(C(F)(F)F)o1)C1c2cc(F)ccc2Oc2ccc(F)cc21` it is 232 °C; for `CCc1nn(-c2ccc(F)cc2)c2cc(C(=O)O)ccc12` it is 204 to 205 °C.
The same measure for `CNCc1ccc(C2CCN(c3c(F)c(N)c4c(=O)c(C(=O)O)cn(C5CC5)c4c3F)C2)cc1` (stereo not given): 201 to 205 °C; for `CC(=O)NC1(c2ccc(C(C)N3CCN(c4ncccn4)CC3)cc2)CC1` (stereo not given): 124 to 125 °C; for `COc1ccccc1NC(=O)Cc1ccccc1`: 128 to 131 °C.
`Oc1ccccc1-c1c(Cl)cccc1Cl` showed a melting point of 100 to 103 °C.
The molecule `COc1ccc(O)c(C2Sc3ccccc3N(C)C2=O)c1` (single isomer, unassigned; (-)) had a melting point of 160 to 162 °C.
The figure for `COc1cc2c(cc1CCCCN(C)C)[nH]c1cc(-c3ccccc3Cl)c3c(c12)C(=O)NC3=O` is 162 to 164 °C; for `Cc1ncn(-c2ccc([N+](=O)[O-])cc2F)n1` it is 105 to 107 °C; for `COC(=O)c1nn(-c2ccc(CBr)cc2)nc1C` it is 122 to 125 °C.
The same measure for `O=C1Nc2ccc(Br)cc2C(c2ccccc2F)=NC1O` (stereo not given): 196 to 198 °C; for `CSCC[C@H](NC(=O)[C@H](CC(C)C)NC(=O)OCc1ccccc1)C(=O)CSC`: 61 to 67 °C.
`CCCCCCCCCCCCCCCCCCS(=O)(=O)c1cc2ccccc2c(N)c1O` returned a melting point of 84 to 88 °C.
The same measure for `CC(=O)NC[C@H]1CN(c2ccc(-c3noc(C)n3)c(F)c2)C(=O)O1`: 177 to 179 °C.
In turn, `COC(=O)c1cc(NC(=O)C(F)(F)F)c2cc(Cc3ccc(F)cc3)cnc2c1O` gave a melting point of 191 to 192 °C.
In turn, `CCn1c(=O)ccc2cnc(Nc3ccc(O)cc3)nc21` had a melting point of 222 to 224 °C.
For `CCOC(=O)CSc1nc(Cl)cc(NN=Cc2ccc(F)cc2)n1`, the melting point lay within 146 to 149 °C.
In the case of `O=C1C=C(c2ccc(Cl)c(S(=O)(=O)N3CCCC3)c2)OC1`, the melting point was 108 to 111 °C.
The figure for `CS(=O)(=O)c1ccccc1OC(F)(F)F` is 44 to 46 °C.
The molecule `O=C(c1ccccc1)c1ccc([N+](=O)[O-])c(C(=O)NCc2ccccc2)c1` yielded a melting point of 167 °C.
`C#CCOC(=O)C=CC(=O)OCC#C` gave a melting point of 78 to 80 °C.
As for `COc1cccc(CNc2ncnc3c2sc2nc(N4CCCC4)c4c(c23)CC(C)(C)OC4)c1OC`, the melting point lay in the range of 166 to 168 °C.
The figure for `c1ccc(-c2nc(SCCOCCSc3nc(-c4ccccc4)c(-c4ccccc4)[nH]3)[nH]c2-c2ccccc2)cc1` is 232 to 234 °C.
Turning to `O=C1NCC(c2ccsc2)SCC1N1C(=O)c2ccccc2C1=O` (stereo not given), the melting point lay in the range of 243 to 245 °C.
`COc1cc(O)c2c(=O)c(OC)c(-c3ccc(OC(=O)C(O)C(O)C(=O)O)c(OC)c3)oc2c1` (stereo not given) showed a melting point of 179 to 180 °C.
With `CCS(=O)(=O)Nc1cc(-c2ncnc(NOC)c2Cl)c(F)cc1C#N`, the melting point lay in the range of 188 to 189 °C.
With `CSc1cc(NCc2nc3ccccc3o2)c(=O)[nH]c1C`, the melting point lay within 180 to 181 °C.
On to `CC(C)(C)c1cc(Cc2nc3cc(Cl)cc(Br)c3o2)cc(C(C)(C)C)c1O`, for which the melting point fell in the range of 133 to 136 °C.
Regarding `O=Cc1cc(F)c(O)c(F)c1O`, the melting point lay in the range of 141 to 143 °C.
With `CCCCCCCCCCCCCCOCC(COCCCCCCCCCCCCCC)(CC(=O)O)CC(=O)O`, the melting point was 84 to 86 °C.
In turn, `CCCCCc1cc(-c2ccc(F)cc2C(C)O)c(C(C)C)nc1C(C)C` (stereo not given) showed a melting point of 84 to 86 °C.
`Cc1noc(NS(=O)(=O)c2ccccc2-c2ccc(-c3ncco3)cc2CN2Cc3ccccc3C2=O)c1C` had a melting point of 135 to 142 °C.
In the case of `CN=C1c2ccccc2CCc2ccc(Cl)cc21`, the melting point fell in the range of 84 to 114 °C.
`Cc1nnc(-c2ccc3occ(-c4cccc(Cl)c4)c3c2)o1`: the melting point was 145 to 146 °C.
For `Cc1c(=O)[nH]c(=O)n2ccsc12`, the melting point is above 230 °C.
`N[C@@H](Cc1ccc(C(F)(F)F)cc1)[C@H](O)c1ccccc1` (racemic) displayed a melting point of 64 to 65 °C.
In turn, `OCc1ncc(-c2cccs2)s1` yielded a melting point of 67 to 68 °C.
Take `O=C(Nc1ccccc1)c1ccccc1Cl`: the melting point lay in the range of 96.4 to 98.3 °C.
The same measure for `CCOC(=O)C(C)Oc1ccc(N(C)c2nc3ccc(Br)cc3o2)cc1` (stereo not given): 91 to 92 °C; for `COC(=O)c1c(C(=O)O)c(O)c2cc(OC)c(OC)c(OC)c2c1-c1cc(OC)c(OC)c(OC)c1`: 167 to 171 °C.
`CCOC(=O)C(C)C(NC(C)=O)C(C(C)=O)C(=O)Nc1ccc(Cl)cc1` (stereo not given) gave a melting point of 169 to 173 °C.
Molecule `Nc1cccc(OCCN2CCc3ccccc3C2)c1N` registered a melting point of 76 to 77 °C.
Take `CCN1C(=O)C(C)(C)C(=O)N(C)c2cc(CN(CCn3ccc4ccsc4c3=O)Cc3cccnc3C)ccc21`: the melting point lay within 125 to 127 °C.
The molecule `COC(=O)c1ccc(CO)cc1N` returned a melting point of 100 to 102 °C.
With `NC(=O)c1cn2c(ccc3ccccc32)n1`, the melting point lay within 270 to 271 °C.
`CC(=Nc1ccc(NC(=O)[C@@H](N)CC(C)C)cc1)N(C)C` showed a melting point of 106 to 107 °C.
The molecule `CCCCCOc1ccc(-c2ccc(CC(=O)c3ccccc3)cc2)cc1` registered a melting point of 86 °C.
The figure for `O=C1CCc2c(-c3ccncc3)sc(-c3ccc(F)cc3)c21` is 193 to 195 °C; for `Nc1ccc(Cl)cc1C(=O)C(F)(F)Cl` it is 55 to 56 °C.
In the case of `COc1ccc(COc2cncc3c2C(=O)c2c(F)ccc(Cl)c2C3=O)cc1`, the melting point was 155 to 157 °C.
Consider `CN(c1ccccc1)c1ncccc1NC(=O)c1ccccc1F`, for which the melting point is 84 to 86 °C.
`COC(=O)c1ccc(Br)cc1CBr` had a melting point of 78 to 79 °C.
The same measure for `COc1ccc(S(=O)(=O)N(CC(N)=O)c2ccc(Cl)cc2C(C)c2ccccc2Cl)cc1OC` (stereo not given): 150 °C; for `CCOc1ccc(S(=O)(=O)N(CC(=O)NN=C2C(=O)Nc3ccccc32)c2ccccc2)cc1`: 136 °C; for `COC(=O)CCCc1cc2cc(Cl)ccc2n1S(=O)(=O)c1c(C)nn(C)c1C`: 125 to 127 °C.
Molecule `C[Si](C)(C)CCOCn1ccc2c(=O)[nH]ncc21` gave a melting point of 147 to 148 °C.
For `CC(=O)Nc1cccc(C=O)c1`, the melting point lay within 68 to 70 °C.
For `COc1nc(N)nc2c1ncn2CCC(CO)CO`, the melting point was 84 to 86 °C.
Take `COc1cc(OC)c2c(=O)[nH]c(-c3cccc(-c4ccc(S(C)=O)cc4)c3)nc2c1` (stereo not given): the melting point is above 300 °C.
With `CCOC(=O)c1cnc2c(c1)N(Cc1cc(F)ccc1F)CCN2`, the melting point is 124 to 125 °C.
As to `NC(=O)c1ccc(CCN2CCC(=C3c4ccsc4CCn4ccnc43)CC2)cc1`, the melting point turned out to be 196 °C.
For the molecule `CC(=O)Nc1ccc2cccc(Oc3cc(N4CCN([C@H](C)c5ccc(F)cc5)CC4)ncn3)c2n1`, the melting point came out at 134 °C.
`COc1ccc(N2CCN(c3ccc(-n4ccn(CC(F)(F)F)c4=O)cc3)CC2)cc1` had a melting point of 224 °C.
For the molecule `COc1ccc(S(N)(=O)=O)cc1C1CO1` (stereo not given), the melting point came out at 118 °C.
As for `Cc1ncc2n1-c1ccc(Br)cc1C(c1ccccn1)=NC2`, the melting point was in the range of 189 to 190 °C.
The same measure for `CC1(C)OCC(CO)(CO)CO1`: 124 to 126 °C.
Molecule `COc1ccc2cnc(N)nc2c1C1CCCC1` returned a melting point of 181 to 183 °C.
Take `COC(=O)CS(=O)(=O)Nc1c(F)cccc1Oc1nc(OC)cc(OC)n1`: the melting point fell in the range of 111 to 114 °C.
The figure for `COc1cc(C(C)=O)ccc1OCCCN1CCC(c2nsc3ccccc23)CC1` is 93 to 95 °C; for `CCCCNc1nc(C=O)c(C#N)cc1C(=O)OCC` it is 81 to 83 °C; for `COC1SC=C(C)NC1=O` (stereo not given) it is 157 to 160 °C.
With `CC(C)N(CCC1(c2ccccc2)C(=O)NCN2CCCCC21)C(C)C` (stereo not given), the melting point fell in the range of 164 to 166 °C.
On to `COc1cc2c(cc1OC)[C@@H]1CN(C)CC[C@@H]1N=C2c1ccc([N+](=O)[O-])cc1` (relative stereo), for which the melting point lay in the range of 194 to 195 °C.
In turn, `CC(Oc1c(Br)cc(Br)cc1Br)c1cc(Br)c(Br)cc1Br` (stereo not given) displayed a melting point of 110 to 112 °C.
With `CCCCCNc1cccc2c1C(=O)N(C1CCC(=O)NC1=O)C2=O` (stereo not given), the melting point was in the range of 141 to 143 °C.
`O=C(NCc1c[nH]c(=S)n1[C@H]1CCc2c(F)cc(F)cc2C1)c1ccco1`: the melting point was 227 to 231 °C.
Take `Nc1nnc(-c2ccc3ncn(-c4cc(C(F)(F)F)ccc4Cl)c3c2)o1`: the melting point lay in the range of 288 to 289 °C.
The molecule `COc1ccc2c(c1)[C@](C)(NC(=O)c1cc3cccc4c3n1CC4)C(=O)N2c1ccc(F)cc1` registered a melting point of 277 to 278 °C.
As to `O=C(Nc1ccccc1)N1CC2(CN1)CNN(C(=O)Nc1ccccc1)C2`, the melting point was 227 °C.
Turning to `O=C(CCCCCCc1ccccc1)Oc1cc(=O)n(-c2ccccc2)c2ncccc12`, the melting point lay in the range of 139 to 140 °C.
The figure for `O=C(O)CCCCCc1nn(-c2ccc(Cl)cc2)c2c1CCC2` is 99 to 101 °C; for `CCOc1ccc2[nH]c(=O)n(N3CCN(C)CC3)c2c1` it is 108 °C.
For `CC(C)(C)OC(=O)N1CCCC1C(=O)NCCC(N)=O` (stereo not given), the melting point stood at 175 °C.
`CCOC(=O)CC(=O)c1cc(F)c(N2CCNCC2)nc1Nc1ccc(F)cc1F` gave a melting point of 121 to 123 °C.
As to `CC(C)NCC1(O)CCN(c2c(F)cc3c(=O)c(C(=O)O)cn(C4CC4)c3c2F)C1` (stereo not given), the melting point was 213 to 214 °C.
`O=C(O)c1cc2cc(-c3ccccc3)ccc2o1`: the melting point lay in the range of 220 to 221 °C.
`CC(C)C(=O)C(=Cc1cc(O)c(O)c([N+](=O)[O-])c1)c1ccccc1`: the melting point was 151 to 156 °C.

The record behind these values is a melting point compilation (Tetko et al.; mined from patent text by program, amines drawn as free bases though some values may be those of a salt).
